In brackets after ≈: the same amount, converted by molar mass. Read-outs that look alike come from different tables or passages of the source. Starred links: 1 amine or outer side, 2 acyl side, 3 side chain; linkers in the order of their positions; H or OH if unused. Positions of bridges follow the written chain, without caps; N, C: chain ends. Residues, ends and D or L forms follow the SMILES beside them. *: point of attachment. C20 diacid = O=C(O)CCCCCCCCCCCCCCCCCCC(=O)*; γGlu = O=C(O)[C@H](CCC(=O)[*:2])N[*:1]
What was measured:
[1] = Assay (III) ThT fibrillation assay for physical stability; assay type: physicochemical
Procedure, shortened: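 Freshly prepared formulations, pH-adjusted, with 1 μM ThT; four or eight replicates incubated at 37 °C under 960 rpm orbital shaking. Fluorescence (ex 444/em 485 nm) read every 20 min; […]. Peptide concentration measured by RP-HPLC before and after the run.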

[2] = Assay (IV) determination of solubility; assay type: physicochemical
Procedure, shortened: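 Solubility was profiled across pH 3.0–8.0 after 18 hours at room temperature: a ~500 nmol/ml aqueous polypeptide solution was diluted 1:1 into 100 mM glycylglycine or bistrispropane buffers. After centrifugation, HPLC gave the dissolved concentration.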

[3] = target: T1, human calcitonin receptor (Homo sapiens, UniProt P30988); test: Assay (II)a functional CRE-luciferase assay, human calcitonin receptor; assay type: cell-based; details: Table 7; human calcitonin (CTa) receptor
T1 construct: expressed in transfected cells; host or cells: BHK570
T1 sequence (P30988 25-474): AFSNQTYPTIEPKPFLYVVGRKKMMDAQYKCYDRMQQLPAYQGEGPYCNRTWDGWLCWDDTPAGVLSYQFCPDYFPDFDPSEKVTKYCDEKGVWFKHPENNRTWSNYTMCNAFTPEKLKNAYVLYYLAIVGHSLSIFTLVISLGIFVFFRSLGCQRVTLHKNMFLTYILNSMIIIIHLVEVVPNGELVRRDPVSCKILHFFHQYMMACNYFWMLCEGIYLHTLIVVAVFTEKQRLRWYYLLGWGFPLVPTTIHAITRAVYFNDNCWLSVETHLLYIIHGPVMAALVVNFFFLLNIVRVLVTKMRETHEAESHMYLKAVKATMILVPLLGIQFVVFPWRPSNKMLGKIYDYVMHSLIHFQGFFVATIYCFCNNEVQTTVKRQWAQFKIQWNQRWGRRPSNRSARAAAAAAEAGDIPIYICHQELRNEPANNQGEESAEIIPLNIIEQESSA

[4] = target: T2, human amylin receptor (amylin 3(a) receptor: human calcitonin receptor + RAMP-3) (Homo sapiens, UniProt O60896+P30988); test: Assay (II)a functional CRE-luciferase assay, human amylin receptor; assay type: cell-based
T2 construct: expressed in transfected cells; host or cells: BHK570
T2 sequence (P30988 25-474): T1 sequence (P30988 25-474)
T2 sequence (O60896 24-148 partner): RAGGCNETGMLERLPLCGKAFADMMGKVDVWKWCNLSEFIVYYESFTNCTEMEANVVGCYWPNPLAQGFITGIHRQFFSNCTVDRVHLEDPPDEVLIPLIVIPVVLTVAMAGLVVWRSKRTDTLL

[5] = bistrispropane buffer, pH 6, pH 6.0, read-out: Solubility pH 6.0
[6] = bistrispropane buffer, pH 6.5, pH 6.5, read-out: Solubility pH 6.5
[7] = bistrispropane buffer, pH 7, pH 7.0, read-out: Solubility pH 7.0
[8] = bistrispropane buffer, pH 7.5, pH 7.5, read-out: Solubility pH 7.5
[9] = bistrispropane buffer, pH 8, pH 8.0, read-out: Solubility pH 8.0
[10] = glycylglycine buffer, pH 3, pH 3.0, read-out: Solubility pH 3.0
[11] = glycylglycine buffer, pH 4, pH 4.0, 18 hours at room temperature, Table 2, read-out: Solubility pH 4.0
[12] = glycylglycine buffer, pH 4, pH 4.0, read-out: Solubility pH 4.0
[13] = glycylglycine buffer, pH 5, pH 5.0, read-out: Solubility pH 5.0
[14] = Table 2, BHK amylin 3(a)-receptor/CRE-luc cells

SMILES | ThT pH 4.0 lag time ([1]; ThT fibrillation assay) [h] | ThT pH 4.0 lag time (h) ([1]; ThT fibrillation assay) | solubility at 18 h [2, 5] [µM] | solubility at 18 h [2, 6] [µM] | solubility at 18 h [2, 7] [µM] | solubility at 18 h [2, 8] [µM] | solubility at 18 h [2, 9] [µM] | solubility at 18 h [2, 10] [µM] | solubility at 18 h [2, 11] [µM] | solubility at 18 h [2, 12] [µM] | solubility at 18 h [2, 13] [µM] | EC50 [3] [pM] | EC50 [4, 14] [pM] | ThT pH 4.0 lag time ([1]; Table 8) [h] | ThT pH 4.0 lag time ([1]; Table 9) [h] | solubility at 18 h ([2]; bistrispropane buffer, pH 7, pH 7.0, 18 hours at room temperature, Table 3, read-out: Solubility pH 7.0) [µM] | solubility at 18 h ([2]; bistrispropane buffer, pH 7, pH 7.0, Table 8, read-out: Solubility pH 7.0) [µM] | solubility at 18 h ([2]; bistrispropane buffer, pH 7, pH 7.0, Table 9, read-out: Solubility pH 7.0) [µM] | solubility at 18 h ([2]; bistrispropane buffer, pH 7.5, pH 7.5, Table 9, read-out: Solubility pH 7.5) [µM] | EC50 ([4]; Table 6, human amylin receptor) [pM]
CC[C@H](C)[C@H](NC(=O)[C@@H]1CCCN1C(=O)CNC(=O)[C@H](Cc1ccccc1)NC(=O)[C@H](CC(N)=O)NC(=O)[C@H](CC(N)=O)NC(=O)[C@H](CO)NC(=O)[C@H](CO)NC(=O)[C@H](Cc1c[nH]cn1)NC(=O)[C@H](CCCNC(=N)N)NC(=O)[C@H](CC(C)C)NC(=O)[C@H](Cc1ccccc1)NC(=O)[C@H](CCC(=O)O)NC(=O)[C@H](C)NC(=O)[C@H](CC(C)C)NC(=O)[C@H](CCCNC(=N)N)NC(=O)[C@H](CCC(N)=O)NC(=O)[C@@H](NC(=O)[C@H](C)NC(=O)[C@@H]1CSSC[C@H](NC(=O)[C@H](CCCCN)NC(=O)[C@H](Cc2c[nH]cn2)NC(=O)CC[C@H](NC(=O)CCCCCCCCCCCCCCCCCCC(=O)O)C(=O)O)C(=O)N[C@@H](CC(N)=O)C(=O)N[C@@H]([C@@H](C)O)C(=O)N[C@@H](C)C(=O)N[C@@H]([C@@H](C)O)C(=O)N1)[C@@H](C)O)C(=O)N[C@@H](CC(C)C)C(=O)N1CCC[C@H]1C(=O)N1CCC[C@H]1C(=O)N[C@H](C(=O)N[C@@H](CC(N)=O)C(=O)N[C@H](C(=O)NCC(=O)N[C@@H](CO)C(=O)N[C@@H](Cc1c[nH]cn1)C(=O)N[C@H](C(=O)N[C@@H](Cc1ccc(O)cc1)C(N)=O)[C@@H](C)O)C(C)C)[C@@H](C)O [Example 68, N-alpha-[(S)-4-Carboxy-4-(19-carboxynonadecanoylamino)butyryl]-His-[Glu14,Arg17,His35]-pramlintide] ({C20 diacid-γGlu}-HKCNTATCATQRLAEFLRHSSNNFGPILPPTNVGSHTY-NH2; disulfide 3-8 (inferred); C-terminus assumed) | >45 | >45 | > 200 | 170 (≈ 788 µg/mL) | 17 (≈ 78.8 µg/mL) | 6 (≈ 27.8 µg/mL) | 7 (≈ 32.4 µg/mL) | > 200 | > 200 | > 200 | > 200 | 430 | 93.5 | – | – | – | – | – | – | –
CC[C@H](C)[C@H](NC(=O)[C@@H]1CCCN1C(=O)CNC(=O)[C@H](Cc1ccccc1)NC(=O)[C@H](CC(N)=O)NC(=O)[C@H](CC(N)=O)NC(=O)[C@H](CO)NC(=O)[C@H](CO)NC(=O)[C@H](Cc1c[nH]cn1)NC(=O)[C@H](Cc1c[nH]cn1)NC(=O)[C@H](CC(C)C)NC(=O)[C@H](Cc1ccccc1)NC(=O)[C@H](CCC(=O)O)NC(=O)[C@H](C)NC(=O)[C@H](CC(C)C)NC(=O)[C@H](CCCNC(=N)N)NC(=O)[C@H](CCC(N)=O)NC(=O)[C@@H](NC(=O)[C@H](C)NC(=O)[C@@H]1CSSC[C@H](NC(=O)[C@H](CCCCN)NC(=O)CC[C@H](NC(=O)CCCCCCCCCCCCCCCCCCC(=O)O)C(=O)O)C(=O)N[C@@H](CC(N)=O)C(=O)N[C@@H]([C@@H](C)O)C(=O)N[C@@H](C)C(=O)N[C@@H]([C@@H](C)O)C(=O)N1)[C@@H](C)O)C(=O)N[C@@H](CC(C)C)C(=O)N1CCC[C@H]1C(=O)N1CCC[C@H]1C(=O)N[C@H](C(=O)N[C@@H](CC(N)=O)C(=O)N[C@H](C(=O)NCC(=O)N[C@@H](CO)C(=O)N[C@@H](CCCCN)C(=O)N[C@H](C(=O)N[C@@H](Cc1ccc(O)cc1)C(N)=O)[C@@H](C)O)C(C)C)[C@@H](C)O [Example 113, N-alpha-[(S)-4-Carboxy-4-(19-carboxynonadecanoylamino)butyryl]-[Glu14,His17,Lys35]-pramlintide] ({C20 diacid-γGlu}-KCNTATCATQRLAEFLHHSSNNFGPILPPTNVGSKTY-NH2; disulfide 2-7 (inferred)) | >45 | >45 | > 200 | > 200 | > 200 | 188 (≈ 840 µg/mL) | 124 (≈ 554 µg/mL) | > 200 | > 200 | > 200 | > 200 | 130 | 134 | >45 | >45 | > 200 | > 200 | > 200 | 188 (≈ 840 µg/mL) | –
CC[C@H](C)[C@H](NC(=O)[C@@H]1CCCN1C(=O)CNC(=O)[C@H](Cc1ccccc1)NC(=O)[C@H](CC(N)=O)NC(=O)[C@H](CC(N)=O)NC(=O)[C@H](CO)NC(=O)[C@H](CO)NC(=O)[C@H](Cc1c[nH]cn1)NC(=O)[C@H](Cc1c[nH]cn1)NC(=O)[C@H](CC(C)C)NC(=O)[C@H](Cc1ccccc1)NC(=O)[C@H](CCC(=O)O)NC(=O)[C@H](C)NC(=O)[C@H](CC(C)C)NC(=O)[C@H](CCCNC(=N)N)NC(=O)[C@H](CCC(N)=O)NC(=O)[C@@H](NC(=O)[C@H](C)NC(=O)[C@@H]1CSSC[C@H](NC(=O)[C@H](CCCCN)NC(=O)CC[C@H](NC(=O)CCCCCCCCCCCCCCCCCCC(=O)O)C(=O)O)C(=O)N[C@@H](CC(N)=O)C(=O)N[C@@H]([C@@H](C)O)C(=O)N[C@@H](C)C(=O)N[C@@H]([C@@H](C)O)C(=O)N1)[C@@H](C)O)C(=O)N[C@@H](CC(C)C)C(=O)N1CCC[C@H]1C(=O)N1CCC[C@H]1C(=O)N[C@H](C(=O)N[C@@H](CC(N)=O)C(=O)N[C@H](C(=O)NCC(=O)N[C@@H](Cc1c[nH]cn1)C(=O)N[C@@H](CC(N)=O)C(=O)N[C@H](C(=O)N[C@@H](Cc1ccc(O)cc1)C(N)=O)[C@@H](C)O)C(C)C)[C@@H](C)O [Example 115, N-alpha-[(S)-4-Carboxy-4-(19-carboxynonadecanoylamino)butyryl]-[Glu14,His17,His34]-pramlintide] ({C20 diacid-γGlu}-KCNTATCATQRLAEFLHHSSNNFGPILPPTNVGHNTY-NH2; disulfide 2-7 (inferred); C-terminus assumed) | >45 | >45 | > 200 | 73 (≈ 329 µg/mL) | 22 (≈ 99.1 µg/mL) | 46 (≈ 207 µg/mL) | 115 (≈ 518 µg/mL) | > 200 | > 200 | > 200 | > 200 | 114 | 129 | – | – | – | – | – | – | –
CC[C@H](C)[C@H](NC(=O)[C@@H]1CCCN1C(=O)CNC(=O)[C@H](Cc1ccccc1)NC(=O)[C@H](CC(N)=O)NC(=O)[C@H](CC(N)=O)NC(=O)[C@H](CO)NC(=O)[C@H](CO)NC(=O)[C@H](Cc1c[nH]cn1)NC(=O)[C@@H](NC(=O)[C@H](CC(C)C)NC(=O)[C@H](Cc1ccccc1)NC(=O)[C@H](CC(N)=O)NC(=O)[C@H](C)NC(=O)[C@H](CC(C)C)NC(=O)[C@H](CCCNC(=N)N)NC(=O)[C@H](CCC(N)=O)NC(=O)[C@@H](NC(=O)[C@H](C)NC(=O)[C@@H]1CSSC[C@H](NC(=O)[C@H](CCCNC(=N)N)NC(=O)CNC(=O)CC[C@H](NC(=O)CCCCCCCCCCCCCCCCCCC(=O)O)C(=O)O)C(=O)N[C@@H](CC(N)=O)C(=O)N[C@@H]([C@@H](C)O)C(=O)N[C@@H](C)C(=O)N[C@@H]([C@@H](C)O)C(=O)N1)[C@@H](C)O)C(C)C)C(=O)N[C@@H](CC(C)C)C(=O)N1CCC[C@H]1C(=O)N1CCC[C@H]1C(=O)N[C@H](C(=O)N[C@@H](CC(N)=O)C(=O)N[C@H](C(=O)NCC(=O)N[C@@H](CO)C(=O)N[C@@H](CC(N)=O)C(=O)N[C@H](C(=O)N1CCC[C@H]1C(N)=O)[C@@H](C)O)C(C)C)[C@@H](C)O [Example 103, N-alpha-[(S)-4-Carboxy-4-(19-carboxynonadecanoylamino)butyryl]-Gly-[Arg1,Pro37]-pramlintide] ({C20 diacid-γGlu}-GRCNTATCATQRLANFLVHSSNNFGPILPPTNVGSNTP-NH2; disulfide 3-8 (inferred)) | – | 1.3 | > 200 | > 200 | 199 (≈ 880 µg/mL) | > 200 | > 200 | > 200 | – | > 200 | > 200 | 75 | – | – | – | – | – | – | – | 52.5

Source: patent US8722849B2, “Polypeptides” (Novo Nordisk A/S, priority 2011, dated 2014)
